Measured values as given in patent US20250144067A1, “PERSONALIZED STARVATION THERAPY FOR CANCER” (Faeth Therapeutics, Inc., priority 2021, published 2025).
Counter-ions that a name gives are not always drawn. Like-named read-outs stand apart in the source and are kept apart here.

What was measured:
[1] = test system: NCI-H292 lung cancer cells; assay: FDA drug screening, complete media vs cholesterol-free media without statin (TABLE 1); assay type: cell-based, human
[2] = test system: NCI-H292 lung cancer cells; assay: FDA drug screening, complete media vs cholesterol-free media with simvastatin (TABLE 2); assay type: cell-based, human
[3] = NCI-H292 cells, cholesterol-free media without statin
[4] = complete vs cholesterol-free media, greater than 0 enhanced anti-cancer activity, about 0 neutral, below 0 antagonists
[5] = NCI-H292 cells, cholesterol-free media with simvastatin 0.04 μM, FDA drug library screen (TABLE 2)
[6] = NCI-H292 cells, complete media, FDA drug library screen (TABLE 2)
[7] = complete media minus cholesterol-free media + simvastatin (0.04 μM), >0 enhanced anti-cancer activity, about 0 neutral, <0 antagonist
[8] = Complete minus Cholesterol-free, >0 enhanced anti-cancer activity, about 0 neutral, <0 antagonist
[9] = NCI-H292 cells, drug in cholesterol-free media with simvastatin 0.04 μM
[10] = NCI-H292 cells, drug in complete media
[11] = complete media vs cholesterol-free media + simvastatin (0.04 μM), >0 enhanced anti-cancer activity, about 0 neutral, <0 antagonist
[12] = Complete minus Cholesterol-free, greater than 0 enhanced anti-cancer activity, about 0 neutral, below 0 antagonists
[13] = NCI-H292 cells in cholesterol-free media without statin
[14] = NCI-H292 cells in complete media
[15] = NCI-H292 cells, cholesterol-free media with simvastatin 0.04 μM, cell growth value in FDA drug screen
[16] = NCI-H292 cells, complete media, cell growth value in FDA drug screen
[17] = complete media minus cholesterol-free media + simvastatin, >0 enhanced anti-cancer activity, about 0 neutral, <0 antagonist
[18] = NCI-H292 cells, cholesterol-free media without statin, FDA drug library screen
[19] = NCI-H292 cells, complete media, FDA drug library screen
[20] = complete vs cholesterol-free media, >0 enhanced anti-cancer activity, about 0 neutral, <0 antagonist
[21] = NCI-H292 cells, FDA library drug in cholesterol-free media with simvastatin 0.04 μM
[22] = NCI-H292 cells, FDA library drug in complete media
[23] = Complete minus Cholesterol-free, greater than 0 enhanced anti-cancer activity, about 0 neutral, below 0 antagonist
[24] = NCI-H292 cells, FDA drug library screen, cholesterol-free media without statin
[25] = NCI-H292 cells, FDA drug library screen, complete media
[26] = NCI-H292 cells, FDA drug library screen, cholesterol-free media with simvastatin 0.04 μM

CN(Cc1ccc(C(C)(C)C)cc1)Cc1cccc2ccccc12 [Butenafine (Hydrochloride)]
Cholesterol-free [1, 3]: 1.694
Complete ([1]; NCI-H292 cells, complete media): 1.364
Difference [1, 4]: −0.33
Cholesterol-free media + simvastatin (0.04 μM) [2, 5]: 1.078
Complete Media [2, 6]: 1.061
Difference [2, 7]: −0.02

C=CC1=C(C(=O)O)N2C(=O)[C@@H](NC(=O)/C(=N\O)c3csc(N)n3)[C@H]2SC1 [Cefdinir]
Difference [1, 8]: −0.24
Cholesterol-free [1, 3]: 1.244
Complete ([1]; NCI-H292 cells, complete media): 0.9998
Cholesterol-free media + simvastatin (0.04 μM) [2, 9]: 1.206
Complete Media [2, 10]: 0.987
Difference [2, 11]: −0.22

CCc1oc2ccccc2c1C(=O)c1cc(Br)c(O)c(Br)c1 [Benzbromarone]
Difference [1, 12]: −0.92
Cholesterol-free [1, 13]: 1.902
Complete [1, 14]: 0.9837
Cholesterol-free media + simvastatin (0.04 μM) [2, 15]: 0.9582
Complete Media [2, 16]: 0.9819
Difference [2, 17]: 0.02

O=C(Nc1cnn2ccc(N3CCC[C@@H]3c3cc(F)ccc3F)nc12)N1CC[C@H](O)C1 [Larotrectinib sulfate]
Cholesterol-free [1, 18]: 1.525
Complete [1, 19]: 1.739
Difference [1, 20]: 0.21
Cholesterol-free media + simvastatin (0.04 μM) [2, 9]: 1.922
Complete Media [2, 10]: 1.699
Difference [2, 11]: −0.22

CC1CCc2c(N3CCC(O)CC3)c(F)cc3c(=O)c(C(=O)O)cn1c23 (stereo not drawn) [Nadifloxacin]
Difference [1, 8]: −0.03
Cholesterol-free [1, 18]: 0.9891
Complete [1, 19]: 0.9558
Cholesterol-free media + simvastatin (0.04 μM) [2, 21]: 1.859
Complete Media [2, 22]: 1.054
Difference [2, 11]: −0.80

Cc1ncc([N+](=O)[O-])n1CCO [Metronidazole]
Difference [1, 8]: −0.03
Cholesterol-free [1, 18]: 1.006
Complete [1, 19]: 0.9754
Cholesterol-free media + simvastatin (0.04 μM) [2, 21]: 1.741
Complete Media [2, 22]: 1.475
Difference [2, 11]: −0.27

CCCN(CCC)S(=O)(=O)c1ccc(C(=O)O)cc1 [Probenecid]
Difference [1, 8]: −0.02
Cholesterol-free [1, 18]: 0.9245
Complete [1, 19]: 0.9089
Cholesterol-free media + simvastatin (0.04 μM) [2, 9]: 1.512
Complete Media [2, 10]: 1.266
Difference [2, 11]: −0.25

O=C(O)c1cc(=O)c2c(OCC(O)COc3cccc4oc(C(=O)O)cc(=O)c34)cccc2o1 [Cromolyn (sodium)]
Difference [1, 12]: −0.63
Cholesterol-free [1, 13]: 1.66
Complete [1, 14]: 1.032
Cholesterol-free media + simvastatin (0.04 μM) [2, 15]: 0.821
Complete Media [2, 16]: 0.9131
Difference [2, 17]: 0.09

O=C1c2ccccc2C(=O)C1c1ccccc1 [Phenindione]
Cholesterol-free [1, 18]: 0.7484
Difference [1, 20]: 0.40
Cholesterol-free media + simvastatin (0.04 μM) [2, 9]: 1.567
Complete Media [2, 10]: 1.395
Difference [2, 11]: −0.17

Amlodipine (besylate)
Cholesterol-free [1]: 1.359
Difference [1]: −0.33
Cholesterol-free media + simvastatin (0.04 μM) [2]: 1.186
Difference [2]: −0.19

Cn1c(=O)cc(N2CCC[C@@H](N)C2)n(Cc2ccccc2C#N)c1=O.O=C(O)c1ccccc1 [Alogliptin (Benzoate)]
Difference [1, 23]: −0.08
Cholesterol-free [1, 24]: 0.8854
Complete [1, 25]: 0.8074
Cholesterol-free media + simvastatin (0.04 μM) [2, 26]: 1.087
Complete Media [2, 25]: 0.9402
Difference [2, 11]: −0.15

C#C[C@]1(O)CC[C@H]2[C@@H]3CCC4=CC(=O)CC[C@@H]4[C@H]3CC[C@@]21CC [Levonorgestrel]
Difference [1, 8]: −0.21
Cholesterol-free [1, 3]: 1.107
Complete ([1]; NCI-H292 cells, complete media): 0.8992
Cholesterol-free media + simvastatin (0.04 μM) [2, 21]: 1.877
Complete Media [2, 22]: 1.543
Difference [2, 11]: −0.33

CN(C)[C@@H]1C(O)=C(C(N)=O)C(=O)[C@@]2(O)C(O)=C3C(=O)c4c(O)ccc(Cl)c4[C@@H](O)[C@H]3C[C@@H]12 [Demeclocycline (hydrochloride)]
Difference [1, 12]: −0.59
Cholesterol-free [1, 13]: 1.527
Complete [1, 14]: 0.9395
Cholesterol-free media + simvastatin (0.04 μM) [2, 5]: 1.054
Complete Media [2, 6]: 1.04
Difference [2, 7]: −0.01

CCC[C@@H]1C[C@@H](C(=O)N[C@@H]([C@H]2O[C@H](SC)[C@H](OP(=O)(O)O)[C@@H](O)[C@H]2O)[C@H](C)Cl)N(C)C1 [Clindamycin (phosphate)]
Cholesterol-free [1, 3]: 1.342
Complete ([1]; NCI-H292 cells, complete media): 0.8969
Difference [1, 4]: −0.44
Cholesterol-free media + simvastatin (0.04 μM) [2, 15]: 1.017
Complete Media [2, 16]: 1.129
Difference [2, 17]: 0.11

CCOC(=O)N[C@@H]1CC[C@@H]2[C@@H](C1)C[C@H]1C(=O)O[C@H](C)[C@H]1[C@H]2/C=C/c1ccc(-c2cccc(F)c2)cn1 [Vorapaxar]
Difference [1, 8]: −0.20
Cholesterol-free [1, 3]: 1.186
Complete ([1]; NCI-H292 cells, complete media): 0.984
Cholesterol-free media + simvastatin (0.04 μM) [2, 5]: 1.048
Complete Media [2, 6]: 1.005
Difference [2, 7]: −0.04

CC[C@H]1OC(=O)[C@H](C)[C@@H](O[C@H]2C[C@@](C)(OC)[C@@H](O)[C@H](C)O2)[C@H](C)[C@@H](O[C@@H]2O[C@H](C)C[C@H](N(C)C)[C@H]2O)[C@](C)(O)C[C@@H](C)/C(=N\OCOCCOC)[C@H](C)[C@@H](O)[C@]1(C)O [Roxithromycin]
Cholesterol-free [1, 18]: 0.9904
Complete [1, 19]: 1.336
Difference [1, 20]: 0.35
Cholesterol-free media + simvastatin (0.04 μM) [2, 26]: 0.9837
Complete Media [2, 25]: 0.8382
Difference [2, 11]: −0.15

Bephenium (hydroxynaphthoate)
Complete ([1]; NCI-H292 cells, complete media): 0.7234
Difference [1, 4]: −0.43
Cholesterol-free media + simvastatin (0.04 μM) [2, 9]: 1.634
Complete Media [2, 10]: 1.472
Difference [2, 11]: −0.16

COc1ccnc(C[S+]([O-])c2nc3cc(-n4cccc4)ccc3[nH]2)c1C (stereo not drawn) [Ilaprazole]
Difference [1, 23]: −0.14
Cholesterol-free [1, 24]: 1.326
Complete [1, 25]: 1.19
Cholesterol-free media + simvastatin (0.04 μM) [2, 21]: 1.567
Complete Media [2, 22]: 1.084
Difference [2, 11]: −0.48

N#CC[C@H](C1CCCC1)n1cc(-c2ncnc3[nH]ccc23)cn1 [Ruxolitinib]
Difference [1, 8]: −0.01
Cholesterol-free [1, 18]: 0.6188
Complete [1, 19]: 0.6101
Cholesterol-free media + simvastatin (0.04 μM) [2, 26]: 0.6455
Complete Media [2, 25]: 0.5664
Difference [2, 11]: −0.08

CCCCC[C@H](O)/C=C/[C@H]1[C@H](O)CC(=O)[C@@H]1C/C=C\CCCC(=O)O [Prostaglandin E2]
Difference [1, 12]: −0.61
Cholesterol-free [1, 13]: 1.546
Complete [1, 14]: 0.9346
Cholesterol-free media + simvastatin (0.04 μM) [2, 15]: 0.8899
Complete Media [2, 16]: 0.9562
Difference [2, 17]: 0.07

Toceranib (phosphate)
Cholesterol-free [1, 3]: 1.278
Complete ([1]; NCI-H292 cells, complete media): 0.9469
Difference [1, 4]: −0.33
Cholesterol-free media + simvastatin (0.04 μM) [2, 26]: 0.9001
Difference [2, 17]: 0.14

NCCCNCCSP(=O)(O)O [Amifostine]
Difference [1, 23]: −0.17
Cholesterol-free [1, 24]: 1.387
Complete [1, 25]: 1.213
Cholesterol-free media + simvastatin (0.04 μM) [2, 5]: 0.9829
Complete Media [2, 6]: 0.9429
Difference [2, 7]: −0.04

Estramustine (phosphate sodium)
Cholesterol-free [1]: 1.196
Complete [1]: 0.9487
Difference [1]: −0.25
Cholesterol-free media + simvastatin (0.04 μM) [2]: 1.251
Difference [2]: −0.18
